Assay [1] concerns the target anti-maltose antibody. As to the kind of experiment: Pulse injection SPR steady state affinity, maltose on immobilized anti-maltose antibody. The following applies: read-out: average KD; pulse injection method, 25° C., initial concentrations 0.05 and 0.1 mM.
Procedure: Roughly the same amount of another antibody, anti-AFP, was immobilized in a reference flowcell in order to minimise errors in reference subtraction due to the high immobilization level. These two proteins were immobilized using the “amine coupling” procedure as follows: HBS-EP was used as running buffer with a constant flow rate of 5 μl/min. After activation for 12 min. with EDC, target (anti-maltose or anti-AFP, 50 μg/ml in 10 mM sodium acetate, pH 5.0) was injected for 7 min., followed by a 12-min. deactivation. Immobilization and all measurements on the surface were performed at 25° C.
Samples of different initial concentrations (0.05 and 0.1 mM) were injected over the surface. The association and dissociation phases of each pulse were 12 seconds. […] Each experiment started with a blank run, i.e., a series of pulses of running buffer alone. The concentration of the first pulse, C1, was assumed to be equal to the concentration in the vial. […]
Response levels were obtained by taking the average of 10 data points at equilibrium. […] The constant multi-concentration pulse series were evaluated with a non-linearly fitted Req versus C plot, whereby KA, KD and Rmax values were obtained directly from the software.
Assay [2] addresses anti-maltose antibody. Nature of the assay: Conventional SPR affinity assay, maltose on immobilized anti-maltose antibody. The assay is classed as binding. Particulars: 12 injections 0 to 1500 μM, 25° C. The procedure:
In order to compare the results obtained with pulse injections to results obtained with the conventional method, 12 maltose injections of concentrations ranging from 0 to 1500 μM were performed. The injection time was 15 sec. Data was evaluated from a Req versus C plot using the BIAevaluation software.

Assay [3] has as its target HSA (Homo sapiens, UniProt P02768).

Sequence of HSA (P02768 25-609 limits assumed): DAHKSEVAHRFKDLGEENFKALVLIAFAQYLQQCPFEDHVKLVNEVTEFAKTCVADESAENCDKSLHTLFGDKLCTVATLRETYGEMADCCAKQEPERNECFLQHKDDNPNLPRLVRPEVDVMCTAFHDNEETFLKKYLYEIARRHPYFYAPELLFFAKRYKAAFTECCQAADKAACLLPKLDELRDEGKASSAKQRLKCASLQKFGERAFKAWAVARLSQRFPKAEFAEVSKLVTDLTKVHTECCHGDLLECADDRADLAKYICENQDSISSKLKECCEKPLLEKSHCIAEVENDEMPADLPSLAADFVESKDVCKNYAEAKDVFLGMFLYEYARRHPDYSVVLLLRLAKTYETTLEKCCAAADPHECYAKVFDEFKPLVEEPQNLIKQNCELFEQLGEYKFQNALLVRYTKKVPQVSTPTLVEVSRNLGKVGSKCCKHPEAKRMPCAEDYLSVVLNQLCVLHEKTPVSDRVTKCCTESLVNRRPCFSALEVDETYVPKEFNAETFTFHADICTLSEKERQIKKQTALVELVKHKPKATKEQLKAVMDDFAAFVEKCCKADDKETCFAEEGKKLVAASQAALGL

As to `OC[C@H]1O[C@H](O[C@H]2[C@H](O)[C@@H](O)C(O)O[C@@H]2CO)[C@H](O)[C@@H](O)[C@@H]1O` (mixture of isomers) [maltose], the Kd in assay [1] worked out at 9 mM; in assay [2] it was 8.5 mM.
As to `C[C@H]1O[C@@H](O[C@H]2[C@@H](O)C[C@H](O[C@H]3[C@@H](O)C[C@H](O[C@H]4CC[C@@]5(C)[C@H](CC[C@@H]6[C@@H]5CC[C@]5(C)[C@@H](C7=CC(=O)OC7)CC[C@]65O)C4)O[C@@H]3C)O[C@@H]2C)C[C@H](O)[C@@H]1O` [Digitoxin, digitoxin], in assay [3], the “site competition on HSA, pair digitoxin and warfarin” value is “non-competitive binders”.

Usually Kd stands for the constant that tells how readily two partners part at equilibrium.
